The test system of series [1] is polypeptide of sequence SEQ ID NO: 18 (Ac-RFAAKAA-NH2). The series is described as follows: HPLC test of % fixing of test compound on polypeptide (positive control peptide). It counts as binding. The settings on record: 0.5 mM polypeptide, 5 mM test compound, 100 mM ammonium acetate buffer pH 10.2, 30° C., 4 hours, darkness. Here is the method: (§1) A test with 0.5 mM of polypeptide and 5 mM of test compound is carried out under the following conditions:
(§2) The reaction mixture containing 40 μl of peptide solution (1.25 mM stock solution in a 100 mM ammonium acetate buffer at pH 10.2 and the polypeptide of sequence SEQ ID NO: 18, SEQ ID NO: 7 in which X1, X2, X3 and X4 each represents a lysine, or SEQ ID NO: 8 in which X1, X2, X3 and X4 each represents a lysine), 35 μl of 100 mM ammonium acetate buffer solution, at pH 10.2, 20 μl of acetonitrile and 5 μl of solution to be tested (100 mM stock solution in acetonitrile or a 50% acetonitrile 50% DMSO mixture) was prepared and then stirred.
The sequence SEQ ID NO: 18, which is not a lipocalin derivative, was used as a positive control. This sequence corresponds to the following sequence:
(§3) The reaction mixture was then put to incubate at 30° C. for 4 hours and in darkness.
(§4) HPLC analysis was then carried out at a gradient of 10% to 45% of buffer B (acetonitrile+0.08% of trifluoroacetic acid (TFA)) in 20 minutes (buffer A: water+0.1% of TFA), rate 1 ml/minute. Detection was carried out under UV at 230 nm.
(§5) The control without allergen consisted of 40 μl of buffer solution.

In series [2] the test system is polypeptide of sequence SEQ ID NO: 19 (Ac-RFAACAA-NH2). The series is described as above. It counts as binding. The settings on record: 5 mM test compound; for % fixing (mean), SEQ ID NO: 19: Example 4; for fixing, SEQ ID NO: 19, pH 8.3: twice 0.5 mM polypeptide (SEQ ID NO: 19 and 8), TRIS-HCl pH 8.3; for fixing, SEQ ID NO: 19, pH 9.2: TRIS-HCl pH 9.2. The protocol:
as §1, §2, §3, §4, §5
A test with 0.5 mM of polypeptide of sequence […] and 5 mM of test compound was carried in accordance with the same protocol as that described for example 1.
The sequence SEQ ID NO: 19, which is not a lipocalin derivative, was used as a positive control. This sequence corresponds to the following sequence:
The buffer used was 100 mM TRIS-HCl at pH 8.3.
(§6) The buffer used was 100 Mm TRIS-HCl at pH 8.3, pH 9.2 and pH 8.8.
(§7) The buffer used was TRIS-HCl at 100 mM.
(§8) A test with twice 0.5 mM of polypeptides of sequences SEQ ID NO: 19 and SEQ ID NO: 1 wherein X1, X2, X3 and X4 each represent a lysine, and having an NH2 group at its C-Terminal end, and SEQ ID NO: 8 wherein X1, X2, X3 and X4 each represent a lysine, and 5 mM of test compound, was carried out in accordance with the same protocol as that described for example 1.

In series [3] the target is T1, polypeptide SEQ ID NO: 8 in which X1, X2, X3 and X4 each represents a lysine (Mus musculus, UniProt O09114).
T1 construct: made in house; host or cells: chemical peptide synthesis (Fmoc)
T1 sequence (O09114 148-173 limits assumed): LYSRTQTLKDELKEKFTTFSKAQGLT
The series is described as follows: HPLC test of % fixing of test compound on polypeptide. The settings on record: 5 mM test compound; for % fixing (mean), SEQ ID NO: 8 (X1-X4 lysine): Example 4; for fixing, SEQ ID NO: 8 (X1-X4 lysine), pH 8.3 / fixing, SEQ ID NO: 8 (X1-X4 lysine), pH 8.8 / fixing, SEQ ID NO: 8 (X1-X4 lysine), pH 9.2: Example 3; for fixing, SEQ ID NO: 8 (X1-X4 lysine), pH 8.3: twice 0.5 mM polypeptide (SEQ ID NO: 19 and 8), TRIS-HCl pH 8.3; for fixing, SEQ ID NO: 8 (X1-X4 lysine), pH 8.3 / fixing, SEQ ID NO: 8 (X1-X4 lysine), pH 9.2: 'Fixing' = fixing exists but not quantifiable; for fixing, SEQ ID NO: 8 (X1-X4 lysine), pH 8.8: TRIS-HCl pH 8.8; for fixing, SEQ ID NO: 8 (X1-X4 lysine), pH 9.2: TRIS-HCl pH 9.2. In kind it is binding. The protocol: as §1, §2, §3, §4, §5, §6, §7, §8

Series [4] has as its target T2, polypeptide SEQ ID NO: 7 in which X1, X2, X3 and X4 each represents a lysine (Mus musculus, UniProt P11672, DEL176-176).
T2 construct: made in house; host or cells: chemical peptide synthesis (Fmoc)
T2 sequence (P11672 with tags, fused parts or gaps DEL176-176 limits assumed): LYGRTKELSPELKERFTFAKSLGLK
Described as above. It counts as binding. As to conditions: 0.5 mM polypeptide, 5 mM test compound, 100 mM ammonium acetate buffer pH 10.2, 30° C., 4 hours, darkness. Here is the method: as §1, §2, §3, §4, §5

The conditions of series [5]: skin sensitisation, as stated in the description; cited from earlier work.
Series [6] concerns polypeptide SEQ ID NO: 1 wherein X1, X2, X3 and X4 each represent a lysine, having an NH2 group at its C-Terminal end. Description: HPLC test of % fixing of test compound on polypeptide. It counts as binding. The settings on record: Example 5; 5 mM test compound, TRIS-HCl 100 mM; signal disturbed, preventing measurements greater than 82-83% fixing, these values represent a minimum. The protocol: as §1, §2, §3, §4, §5, §8, §7
It should be noted, in the case of the tests of SEQ ID NO: 1, the signal was disturbed, preventing measurements greater than 82-83% fixing. These values consequently represent a minimum.
A coelution of the polypeptide with the allergens cinnamic aldehyde and 1,2-Benzisothiazolin-3-one was observed.

[7] abbreviates: Example 2, 0.5 mM polypeptide, 100 mM TRIS-HCl pH 8.3.
Where [8] appears, read: twice 0.5 mM polypeptide, TRIS-HCl 100 mM.
Where [9] appears, read: Example 5, twice 0.5 mM polypeptide, TRIS-HCl 100 mM.
The mark [10] stands for this setting: twice 0.5 mM polypeptide, TRIS-HCl 100 mM, 'Fixing' = not quantifiable.
The mark [11] stands for this setting: Example 5, twice 0.5 mM polypeptide, TRIS-HCl 100 mM, 'Fixing' = not quantifiable.
[12] abbreviates: Example 3, 'Fixing' = fixing exists but not quantifiable.
The mark [13] stands for this setting: Example 3, twice 0.5 mM polypeptide.

These results are taken from patent US8703431B2, “Polypeptides for the in vitro assessment of the sensitising potential of a test compound” (Immunosearch, priority 2009, dated 2014).

`Clc1ccccc1` [Cbz, chlorobenzene]: the “% fixing, SEQ ID NO: 18” value in series [1] is on record as 0%. The “% fixing, SEQ ID NO: 19” value in series [2] (setting [7]) and in series [2] (setting [9]) was 0% in each case. The “% fixing (mean), SEQ ID NO: 19” value in series [2] (setting [8]) is 0%. The “% fixing, SEQ ID NO: 8 (X1-X4 lysine)” value in series [3] (0.5 mM polypeptide, 100 mM ammonium acetate buffer pH 10.2, 30° C., 4 hours, darkness) was 0%; in series [3] (setting [11]) it was 0%. Besides, in series [3] (setting [10]), the “% fixing (mean), SEQ ID NO: 8 (X1-X4 lysine)” value worked out at 0%. Moreover, the “% fixing, SEQ ID NO: 7 (X1-X4 lysine)” value in series [4] was found to be 0%. Further, in series [5], the “sensitising capacity (sensitiser class)” value is reported as “non-sensitising”. For the same compound, the “% fixing, SEQ ID NO: 1 (X1-X4 lysine, NH2 group at C-Terminal end)” value in series [6] was 7.5%.
Take `Oc1ccc(O)cc1` [HQ, 1,4-hydroquinone]: in series [2] (setting [12]), the “fixing, SEQ ID NO: 19, pH 8.3” value turned out to be 100%. Further, the “% fixing (mean), SEQ ID NO: 19” value in series [2] (setting [8]) came to 90%. Besides, the “% fixing, SEQ ID NO: 19” value in series [2] (setting [9]) was determined as 90%. Further, the “fixing, SEQ ID NO: 8 (X1-X4 lysine), pH 8.3” value in series [3] was 100%. Also, in series [3] (twice 0.5 mM polypeptide), the “fixing, SEQ ID NO: 8 (X1-X4 lysine), pH 8.8” value amounted to 100% and the “fixing, SEQ ID NO: 8 (X1-X4 lysine), pH 9.2” value is on record as “Fixing”. Further, the “% fixing (mean), SEQ ID NO: 8 (X1-X4 lysine)” value in series [3] (setting [10]) was 100%. Further, in series [3] (setting [11]), the “% fixing, SEQ ID NO: 8 (X1-X4 lysine)” value is reported as 100%. Further, the “sensitising capacity (sensitiser class)” value in series [5] is “strong sensitisers”. Further, the “% fixing, SEQ ID NO: 1 (X1-X4 lysine, NH2 group at C-Terminal end)” value in series [6] was 82.5%.
`O=CCCCC=O` [GA, glutaraldehyde]: the “fixing, SEQ ID NO: 19, pH 8.3” value in series [2] (setting [12]) was found to be 22%. Further, the “fixing, SEQ ID NO: 19, pH 8.8” value in series [2] (Example 3, twice 0.5 mM polypeptide, TRIS-HCl pH 8.8, 'Fixing' = fixing exists but not quantifiable) was “Fixing”. Further, the “fixing, SEQ ID NO: 19, pH 9.2” value in series [2] (setting [13]) is 33%. Further, in series [2] (setting [8]), the “% fixing (mean), SEQ ID NO: 19” value was 33%. In addition, the “% fixing, SEQ ID NO: 19” value in series [2] (setting [9]) is 33%. Also, the “fixing, SEQ ID NO: 8 (X1-X4 lysine), pH 8.3” value in series [3] stood at 50%. For the same compound, in series [3] (twice 0.5 mM polypeptide), the “fixing, SEQ ID NO: 8 (X1-X4 lysine), pH 8.8” value turned out to be 100% and the “fixing, SEQ ID NO: 8 (X1-X4 lysine), pH 9.2” value is 50%. In addition, in series [3] (setting [10]), the “% fixing (mean), SEQ ID NO: 8 (X1-X4 lysine)” value came to 50%. In series [3] (setting [11]), the “% fixing, SEQ ID NO: 8 (X1-X4 lysine)” value was 50%. For the same compound, the “sensitising capacity (sensitiser class)” value in series [5] is listed as “strong sensitisers”. Further, in series [6], the “% fixing, SEQ ID NO: 1 (X1-X4 lysine, NH2 group at C-Terminal end)” value was determined as 83%.
Take `CN(C)CCCN` [3-DMAPA, 3-3-dimethylaminopropylamine]: the “% fixing, SEQ ID NO: 19” value in series [2] (setting [7]) was found to be 25%; in series [2] (setting [9]) it was 15%. Also, the “% fixing (mean), SEQ ID NO: 19” value in series [2] (setting [8]) is reported as 15%. In addition, the “% fixing (mean), SEQ ID NO: 8 (X1-X4 lysine)” value in series [3] (setting [10]) was determined as 6%. In series [3] (setting [11]), the “% fixing, SEQ ID NO: 8 (X1-X4 lysine)” value is reported as 6%. In addition, in series [5], the “sensitising capacity (sensitiser class)” value is reported as “moderate sensitisers”. Also, in series [6], the “% fixing, SEQ ID NO: 1 (X1-X4 lysine, NH2 group at C-Terminal end)” value was 3%.
As to `CC(C=O)Cc1ccc(C(C)(C)C)cc1` (stereo not drawn) [Li, lilial], the “fixing, SEQ ID NO: 19, pH 8.3” value in series [2] (setting [12]) was 36%. In series [2] (setting [13]), the “fixing, SEQ ID NO: 19, pH 9.2” value was 0%. For the same compound, in series [2] (setting [8]), the “% fixing (mean), SEQ ID NO: 19” value is given as 18%. The “% fixing, SEQ ID NO: 19” value in series [2] (setting [9]) turned out to be 18%. The “fixing, SEQ ID NO: 8 (X1-X4 lysine), pH 8.3” value in series [3] is recorded as 0%. Also, the “% fixing (mean), SEQ ID NO: 8 (X1-X4 lysine)” value in series [3] (setting [10]) is given as 0%. Besides, the “% fixing, SEQ ID NO: 8 (X1-X4 lysine)” value in series [3] (setting [11]) is given as 0%. Also, the “sensitising capacity (sensitiser class)” value in series [5] is given as “weak sensitiser”. In series [6], the “% fixing, SEQ ID NO: 1 (X1-X4 lysine, NH2 group at C-Terminal end)” value amounted to 12%.
